System: mouse B2M gene
Test: In vivo editing in mouse bone marrow, G650 sgRNA, % indel by NGS
Parameters: species or system CD-1 female mice
Conditions: G650, i.v. dose 1 mg/kg, experiment 108
Procedure: [Worded in the source for another target; this target is reported under the same test.] In brief, to quantitatively determine the efficiency of editing at the target location in the genome, genomic DNA was isolated and deep sequencing was utilized to identify the presence of insertions and deletions introduced by gene editing.
PCR primers were designed around the target site (e.g., within B2M), and the genomic area of interest was amplified. Additional PCR was performed according to the manufacturer's protocols (Illumina) to add the necessary chemistry for sequencing. The amplicons were sequenced on an Illumina MiSeq instrument. The reads were aligned to the mouse or rat reference genome (e.g., GRCm38) after eliminating those having low quality scores. The resulting files containing the reads were mapped to the reference genome (BAM files), where reads that overlapped the target region of interest were selected and the number of wild type reads versus the number of reads which contain an insertion, substitution, or deletion was calculated.
The editing percentage (e.g., the “indel efficiency” or “percent indels”) was defined as the total number of sequence reads with insertions or deletions over the total number of sequence reads, including wild type.
The in vivo delivery to liver, spleen, and bone marrow was assessed by measuring editing efficiency for materials delivered with formulations including various amine lipid compounds. […]

SMILES | % Editing in BM [%]
CCCCC/C=C\C/C=C\CCCCCCCC(=O)OCC(COC(=O)CCC(OCCCCCCCC)OCCCCCCCC)COC(=O)OCCCN(CC)CC (centres unmarked) [Compound 1, 3-((4,4-bis(octyloxy)butanoyl)oxy)-2-((((3-(diethylamino)propoxy)carbonyl)oxy)methyl)propyl (9Z,12Z)-octadeca-9,12-dienoate, reference compound] | 2.66
CCCCC/C=C\C/C=C\CCCCCCCC(=O)OCC(COC(=O)CC12CC3CC(CC(C3)C1)C2)COC(=O)OCCCN(CC)CC (centres unmarked) [Compound 107, 3-(2-((3 r,5 r, 7r)-adamantan-1-yl)acetoxy)-2-((((3-(diethylamino)propoxy)carbonyl)oxy)methyl)propyl (9Z,12Z)-octadeca-9,12-dienoate] | 0.32

— US20220402862A1 (Intellia Therapeutics, Inc., priority 2019, published 2022)
